Data reported in article PMC9977294, “A parasitic fungus employs mutated eIF4A to survive on rocaglate-synthesizing Aglaia plants” (eLife, 2023).
Values joined by “and” are separate entries in the source; they are usually repeats but may differ in a detail not shown here. Identical values can stand only once. “Also recorded” adds a separate entry of the source.

How the values were obtained:
[1] = tested on: C. orbiculare eIF4A^WT; test: In planta fungal biomass on cucumber cotyledons (RT-qPCR); assay type: in vivo, Colletotrichum orbiculare
Experimental: Fungal inoculation was performed as previously described ([Hiruma and Saijo, 2016]; [Kumakura et al., 2019]) with modifications. Cucumber cotyledons were used for C. orbiculare inoculation. Seeds of cucumber, Cucumis sativus Suyo strain (Sakata Seed Corp.), were planted on a mix of equal amounts of vermiculite (VS Kakou) and Supermix A (Sakata Seed Corp.). Cucumbers were grown at 24°C under a 10 hr light/14 hr dark cycle using biotrons (NK Systems). Cotyledons were detached from seedlings of cucumbers and inoculated with C. orbiculare at 13 days post-germination. C. orbiculare strains (eIF4A^WT#1 and eIF4A^H153G#1, Supplementary file 4) were cultured on 100 ml of 3.9% PDA in a 300 ml flask at 25°C for 6 days in the dark. […] The concentration of conidia was measured with disposable hemacytometers (Funakoshi) and adjusted to 10^5 conidia/ml with or without aglafoline (1 µM). […]
The living fungal biomass in cucumber leaves at 3.5 days postinoculation (dpi) was measured by RT-qPCR. Relative expression levels of the C. orbiculare 60S ribosomal protein L5 gene (GenBank: Cob_v012718) ([Gan et al., 2013]) normalized to that of a cucumber cyclophilin gene (GenBank: AY942800.1) ([Liang et al., 2018]) were determined. […]

[2] = tested on: C. orbiculare eIF4A^His153Gly conidia and mycelia; test: Ribosome profiling and RNA-Seq, translation efficiency change; assay type: cell-based, Colletotrichum orbiculare; details: 3 µM aglafoline, 6 h, compared with eIF4A^WT
Experimental: (§1) Glycerol stocks of C. orbiculare eIF4A^WT#1 and eIF4A^H153G#1 strains were streaked on PDA in 90 mm plastic Petri dishes and incubated for 3 days. A single colony of each strain was transferred onto PDA and incubated for 3 days. The outer edges of colonies were transferred to 90 mm plastic dishes filled with 20 ml of PDB using plastic straws and incubated for 4 days. Aglafoline (0.3 or 3 µM) or DMSO was added to dishes and incubated for 6 h.
(§2) A single colony from the glycerol stocks was cultured by the same method used for mycelium preparation. The outer edges of colonies of each strain were transferred into six 300 ml flasks filled with 100 ml of PDA. Two milliliters of sterilized water was added to each flask, and the flasks were shaken well to ensure that the mycelial cells adhered to the entire surface of the PDA evenly. After 6 days of incubation in the dark, conidia generated on the surface of PDA were suspended in 20 ml of sterilized water. […]
(§3) Sequence data were processed as previously described ([McGlincy and Ingolia, 2017]) with modifications. For ribosome profiling, using the Fastp v0.21.0 ([Chen et al., 2018]) tool, sequences of reads 1 were corrected by reads 2, and quality filtering and adapter sequence removal were performed on reads 1. The adapter-removed reads 1 were split by the barcode sequence. […]

[3] = tested on: C. orbiculare eIF4A^WT conidia and mycelia; test: as above; assay type: cell-based, Colletotrichum orbiculare; details: 0.3 or 3 µM aglafoline, 6 h
Experimental: as §1, §2, §3

SMILES: COC(=O)[C@H]1[C@@H](O)[C@@]2(O)c3c(OC)cc(OC)cc3O[C@@]2(c2ccc(OC)cc2)[C@@H]1c1ccccc1 [Aglafoline, methyl rocaglate]
- in planta fungal biomass ([1]; cucumber leaves, 1 µM aglafoline, 3 dpi, Figure 4B): reduced the biomass of the WT eIF4A-recombined strain on cucumber leaves
- In planta fungal biomass (Figure 4B source data), single replicates ([1]; eIF4AWT, aglafoline +, Replicate 1-8): 0.01241 and 0.4556 and 0.03831 and 0.01038 and 0.09347 and 0.5781 and 0.1819 and 0.09019
- translation efficiency change [2]: attenuated by the His153Gly substitution
- translation efficiency change [3]: a subset of mRNAs showed high aglafoline sensitivity in terms of translation efficiency in conidia; also recorded: the reduction was compound dose dependent
